US20210024542A1 (Torcept Therapeutics, Inc., priority 2018, published 2021)

How the values were obtained:
Assay type in all cases: cell-based, human
[1] = system: SW684; assay: OncoPanel cell proliferation assay, SW684; conditions: for Relative cell count (%) Mean: SW684
Protocol: (§1) Cells were seeded into 384-well plates and incubated in a humidified atmosphere of 5% CO2 at 37° C. Compounds were added the day following cell seeding. At the same time, a time zero untreated cell plate was generated. After a 3-day incubation period, cells were fixed and stained to allow fluorescence imaging of nuclei. Compounds (1 mM stock solutions) were serially diluted in half-log steps from the highest test concentration ([…]), and assayed over 10 concentrations with a maximum assay concentration of 0.1% DMSO. Automated fluorescence microscopy was carried out using a Molecular Devices ImageXpress Micro XL high-content imager, and images were collected with a 4× objective. 16-bit TIFF images were acquired and analyzed with MetaXpress 5.1.0.41 software.
(§2) Cell proliferation was measured by the fluorescence intensity of an incorporated nuclear dye. The output is referred to as the relative cell count, where the measured nuclear intensity is transformed to percent of control (POC) using the following formula: […]
(§3) Cellular response parameters were calculated using nonlinear regression to a sigmoidal single-site dose response model:
(§4) Where y is a response measured at concentration x, A and B are the lower and upper limits of the response, C is the concentration at the response midpoint (EC50), and D is the Hill Slope (Ref. 1).
GI50 is the concentration needed to reduce the observed growth by half (midway between the curve maximum and the time zero value). […] In rare instances, values <0 or >10 may be observed. […] Curve-fitting, calculations, and report generation was performed using a custom data reduction engine and MathIQ based software (AIM).

[2] = system: Hs 729; assay: OncoPanel cell proliferation assay, Hs 729; conditions: for Relative cell count (%) Mean: Hs 729
Protocol: as §1, with “Cells were grown in RPMI 1640, 10% FBS, 2 mM L-alanyl-L-glutamine, 1 mM Na pyruvate, or a special medium. Cells” for “Cells”
as §2, §3, §4
(§5) EC50 is the test compound concentration at the curve inflection point or half the effective response (parameter C of the fitted curve solution). GI50 is the concentration needed to reduce the observed growth by half (midway between the curve maximum and the time zero value). “Cell Count Activity Area” is an estimate of the integrated area above the curve (Barretina, et al. The Cancer Cell Line Encyclopedia enables predictive modelling of anticancer drug sensitivity. Nature 483: 603-607). […] In rare instances, values <0 or >10 may be observed. […] Curve-fitting, calculations, and report generation was performed using a custom data reduction engine and MathIQ based software (AIM).

[3] = system: 786-O; assay: OncoPanel cell proliferation assay, 786-O; conditions: for Relative cell count (%) Mean: 786-0
Protocol: as §1, with “Cells were grown in RPMI 1640, 10% FBS, 2 mM L-alanyl-L-glutamine, 1 mM Na pyruvate, or a special medium. Cells” for “Cells”
as §2, §3, §4, §5

[4] = system: Hs 852.T; assay: OncoPanel cell proliferation assay, Hs 852.T
Protocol: as §1, with “Cells were grown in RPMI 1640, 10% FBS, 2 mM L-alanyl-L-glutamine, 1 mM Na pyruvate, or a special medium. Cells” for “Cells”
as §2, §3, §4, §5

[5] = system: A101D; assay: OncoPanel cell proliferation assay, A101D
Protocol: as §1, with “Cells were grown in RPMI 1640, 10% FBS, 2 mM L-alanyl-L-glutamine, 1 mM Na pyruvate, or a special medium. Cells” for “Cells”
as §2, §3, §4, §5

[6] = system: AGS; assay: OncoPanel cell proliferation assay, AGS
Protocol: as §1, with “Cells were grown in RPMI 1640, 10% FBS, 2 mM L-alanyl-L-glutamine, 1 mM Na pyruvate, or a special medium. Cells” for “Cells”
as §2, §3, §4, §5

[7] = Homo sapiens, 72 h, 3-day incubation, read-out: Cell Count EC50
[8] = Homo sapiens, 72 h, 3-day incubation, read-out: Cell Count GI50
[9] = Homo sapiens, 72 h, 3-day incubation, read-out: Cell Count IC50

## CO[C@H]1C[C@@H]2CC[C@@H](C)[C@@](O)(O2)C(=O)C(=O)N2CCCC[C@H]2C(=O)O[C@H]([C@H](C)C[C@@H]2C[C@@H]3C[C@H]2C[C@H]3O)CC(=O)[C@H](C)/C=C(\C)[C@@H](O)[C@@H](OC)C(=O)[C@H](C)C[C@H](C)/C=C/C=C/C=C/1C [Formula I, 37R-hydroxynorbornylrapamycin]
[1]; Homo sapiens, 72 h, SW684, 3-day incubation, read-out: Cell Count EC50
  EC50: 0.477 nM
[1]; Homo sapiens, 72 h, SW684, 3-day incubation, read-out: Cell Count GI50
  GI50: 0.286 nM
[1]; Homo sapiens, 72 h, SW684, 3-day incubation, read-out: Cell Count IC50
  IC50: 21.1 nM
[1]; SW684, scale 0-10
  Cell Count Activity Area: 3.93
[1]; 1.00E+00 microM
  Relative cell count (%) Mean: 44.1%
[1]; 1.00E−01 microM
  Relative cell count (%) Mean: 51.0%
[1]; 1.00E−02 microM
  Relative cell count (%) Mean: 55.0%
[1]; 1.00E−03 microM
  Relative cell count (%) Mean: 68.8%
[1]; 1.01E−04 microM
  Relative cell count (%) Mean: 89.3%
[1]; 3.16E−01 microM
  Relative cell count (%) Mean: 47.1%
[1]; 3.17E−02 microM
  Relative cell count (%) Mean: 52.7%
[1]; 3.17E−03 microM
  Relative cell count (%) Mean: 60.7%
[1]; 3.18E−04 microM
  Relative cell count (%) Mean: 77.8%
[1]; 3.18E−05 microM
  Relative cell count (%) Mean: 91.9%
[2]; Homo sapiens, 72 h, Hs 729, 3-day incubation, read-out: Cell Count EC50
  EC50: 14.1 nM
[2]; Homo sapiens, 72 h, Hs 729, 3-day incubation, read-out: Cell Count GI50
  GI50: 17.3 nM
[2]; Homo sapiens, 72 h, Hs 729, 3-day incubation, read-out: Cell Count IC50
  IC50: > 1000 nM
[2]; Hs 729, scale 0-10
  Cell Count Activity Area: 1.80
[2]; 1.00E+00 microM
  Relative cell count (%) Mean: 65.5%
[2]; 1.00E−01 microM
  Relative cell count (%) Mean: 69.6%
[2]; 1.00E−02 microM
  Relative cell count (%) Mean: 79.6%
[2]; 1.00E−03 microM
  Relative cell count (%) Mean: 87.3%
[2]; 1.01E−04 microM
  Relative cell count (%) Mean: 95.7%
[2]; 3.16E−01 microM
  Relative cell count (%) Mean: 63.1%
[2]; 3.17E−02 microM
  Relative cell count (%) Mean: 76.9%
[2]; 3.17E−03 microM
  Relative cell count (%) Mean: 79.1%
[2]; 3.18E−04 microM
  Relative cell count (%) Mean: 87.7%
[2]; 3.18E−05 microM
  Relative cell count (%) Mean: 91.5%
[3]; 1.00E+00 microM
  Relative cell count (%) Mean: 37.4%
[3]; 1.00E−01 microM
  Relative cell count (%) Mean: 44.8%
[3]; 1.00E−02 microM
  Relative cell count (%) Mean: 52.1%
[3]; 1.00E−03 microM
  Relative cell count (%) Mean: 61.1%
[3]; 1.01E−04 microM
  Relative cell count (%) Mean: 88.5%
[3]; 3.16E−01 microM
  Relative cell count (%) Mean: 43.9%
[3]; 3.17E−02 microM
  Relative cell count (%) Mean: 46.5%
[3]; 3.17E−03 microM
  Relative cell count (%) Mean: 60.0%
[3]; 3.18E−04 microM
  Relative cell count (%) Mean: 77.4%
[3]; 3.18E−05 microM
  Relative cell count (%) Mean: 100.6%
[3]; 786-O, scale 0-10
  Cell Count Activity Area: 4.43
[3]; Homo sapiens, 786-0, 72 h, 786-O, 3-day incubation, read-out: Cell Count EC50
  EC50: 0.395 nM
[3]; Homo sapiens, 786-0, 72 h, 786-O, 3-day incubation, read-out: Cell Count GI50
  GI50: 1.91 nM
[3]; Homo sapiens, 786-0, 72 h, 786-O, 3-day incubation, read-out: Cell Count IC50
  IC50: 4.07 nM
[4]; 1.00E+00 microM
  Relative cell count (%) Mean: 67.7%
[4]; 1.00E−01 microM
  Relative cell count (%) Mean: 82.5%
[4]; 1.00E−02 microM
  Relative cell count (%) Mean: 92.9%
[4]; 1.00E−03 microM
  Relative cell count (%) Mean: 96.5%
[4]; 1.01E−04 microM
  Relative cell count (%) Mean: 106.1%
[4]; 3.16E−01 microM
  Relative cell count (%) Mean: 78.0%
[4]; 3.17E−02 microM
  Relative cell count (%) Mean: 87.7%
[4]; 3.17E−03 microM
  Relative cell count (%) Mean: 100.5%
[4]; 3.18E−04 microM
  Relative cell count (%) Mean: 105.1%
[4]; 3.18E−05 microM
  Relative cell count (%) Mean: 99.0%
[4]; [7]
  EC50: 335 nM
[4]; [8]
  GI50: 803 nM
[4]; [9]
  IC50: > 1000 nM
[4]; scale 0-10
  Cell Count Activity Area: 1.22
[5]; 1.00E+00 microM
  Relative cell count (%) Mean: 50.8%
[5]; 1.00E−01 microM
  Relative cell count (%) Mean: 57.8%
[5]; 1.00E−02 microM
  Relative cell count (%) Mean: 54.7%
[5]; 1.00E−03 microM
  Relative cell count (%) Mean: 66.8%
[5]; 1.01E−04 microM
  Relative cell count (%) Mean: 90.7%
[5]; 3.16E−01 microM
  Relative cell count (%) Mean: 52.8%
[5]; 3.17E−02 microM
  Relative cell count (%) Mean: 58.0%
[5]; 3.17E−03 microM
  Relative cell count (%) Mean: 61.9%
[5]; 3.18E−04 microM
  Relative cell count (%) Mean: 78.1%
[5]; 3.18E−05 microM
  Relative cell count (%) Mean: 95.8%
[5]; [7]
  EC50: 0.322 nM
[5]; [8]
  GI50: 0.999 nM
[5]; [9]
  IC50: > 1000 nM
[5]; scale 0-10
  Cell Count Activity Area: 3.52
[6]; 1.00E+00 microM
  Relative cell count (%) Mean: 32.3%
[6]; 1.00E−01 microM
  Relative cell count (%) Mean: 39.3%
[6]; 1.00E−02 microM
  Relative cell count (%) Mean: 39.1%
[6]; 1.00E−03 microM
  Relative cell count (%) Mean: 39.8%
[6]; 1.01E−04 microM
  Relative cell count (%) Mean: 58.2%
[6]; 3.16E−01 microM
  Relative cell count (%) Mean: 38.3%
[6]; 3.17E−02 microM
  Relative cell count (%) Mean: 34.7%
[6]; 3.17E−03 microM
  Relative cell count (%) Mean: 40.1%
[6]; 3.18E−04 microM
  Relative cell count (%) Mean: 45.6%
[6]; 3.18E−05 microM
  Relative cell count (%) Mean: 82.7%
[6]; [7]
  EC50: 0.0635 nM
[6]; [8]
  GI50: 0.136 nM
[6]; [9]
  IC50: 0.186 nM
[6]; scale 0-10
  Cell Count Activity Area: 5.50
